Measured values from US20130157954A1, “METHODS FOR TREATMENT OR PROPHYLAXIS OF KIDNEY OR LIVER DYSFUNCTION” (NPS PHARMACEUTICALS, INC., priority 2010, published 2013).

Assay: Example 1: kidney biomarkers (urea nitrogen, creatinine, GFR) in short bowel syndrome patients, every four weeks for 24 weeks; also sorted by >5% change from baseline
Type: in vivo, Human
Conditions: for CREATININE (RATE BLANKED) change from baseline −5% <= and <=5%, number of patients / CREATININE (RATE BLANKED) change from baseline −5% <= and <=5%, percent of patients / GFR change from baseline <−5%, number of patients / GFR change from baseline <−5%, percent of patients / GFR change from baseline >5%, number of patients / GFR change from baseline >5%, percent of patients / GFR change from baseline −5% <= and <=5%, number of patients / GFR change from baseline −5% <= and <=5%, percent of patients / UREA NITROGEN change from baseline <−5%, number of patients / UREA NITROGEN change from baseline <−5%, percent of patients / UREA NITROGEN change from baseline >5%, number of patients / UREA NITROGEN change from baseline >5%, percent of patients / UREA NITROGEN change from baseline −5% <= and <=5%, number of patients / UREA NITROGEN change from baseline −5% <= and <=5%, percent of patients / CREATININE (RATE BLANKED) change from baseline <−5%, number of patients / CREATININE (RATE BLANKED) change from baseline <−5%, percent of patients / CREATININE (RATE BLANKED) change from baseline >5%, number of patients / CREATININE (RATE BLANKED) change from baseline >5%, percent of patients: 0.1 mg/kg/day
Protocol: Human patients with short bowel syndrome were divided into three groups: a control group (16 total individuals) to receive placebo, an experimental group (35 total individuals) to receive teduglutide at 0.05 mg/kg/day throughout the study, and an experimental group (32 total individuals) to receive teduglutide at 0.1 mg/kg/day throughout the study. Patients were treated by subcutaneous injection of placebo or the appropriate dose of teduglutide. As individuals with short bowel syndrome are likely to experience associated liver and kidney disease, known biomarkers of liver and kidney function were monitored every four weeks, for 24 weeks. The liver biomarkers tested included total bilirubin, ALT and AST and ALP. The kidney biomarkers tested included urea nitrogen, creatinine and GFR. Before administration of placebo or teduglutide, diagnostic biomarker levels were tested to establish a baseline for each individual.
To visualize the effect of GLP-2 on the levels of the diagnostic biomarkers, the average change from baseline was calculated for the placebo and teduglutide treated groups for each visit after a baseline was established. The average change from baseline of each group is depicted in FIGS. 1-7. The numerical figures for each diagnostic biomarker at each time point are depicted in Table 1.
The raw data for this sorting is reproduced in Table 2 below.

CC[C@H](C)[C@H](NC(=O)[C@H](Cc1ccccc1)NC(=O)[C@H](CC(=O)O)NC(=O)[C@H](CCCNC(=N)N)NC(=O)[C@H](C)NC(=O)[C@H](C)NC(=O)[C@H](CC(C)C)NC(=O)[C@H](CC(N)=O)NC(=O)[C@H](CC(=O)O)NC(=O)[C@H](CC(C)C)NC(=O)[C@@H](NC(=O)[C@@H](NC(=O)[C@H](CC(N)=O)NC(=O)[C@H](CCSC)NC(=O)[C@H](CCC(=O)O)NC(=O)[C@H](CC(=O)O)NC(=O)[C@H](CO)NC(=O)[C@H](Cc1ccccc1)NC(=O)[C@H](CO)NC(=O)CNC(=O)[C@H](CC(=O)O)NC(=O)CNC(=O)[C@@H](N)Cc1c[nH]cn1)[C@@H](C)O)[C@@H](C)CC)C(=O)N[C@@H](CC(N)=O)C(=O)N[C@@H](Cc1c[nH]c2ccccc12)C(=O)N[C@@H](CC(C)C)C(=O)N[C@H](C(=O)N[C@@H](CCC(N)=O)C(=O)N[C@H](C(=O)N[C@@H](CCCCN)C(=O)N[C@H](C(=O)N[C@H](C(=O)N[C@@H](CC(=O)O)C(=O)O)[C@@H](C)O)[C@@H](C)CC)[C@@H](C)O)[C@@H](C)CC [teduglutide]
CREATININE (RATE BLANKED) change from baseline −5% <= and <=5%, number of patients (week 12): 4
CREATININE (RATE BLANKED) change from baseline −5% <= and <=5%, percent of patients (week 12): (12.5%)
GFR change from baseline <−5%, number of patients (week 12): 11
GFR change from baseline <−5%, percent of patients (week 12): (34.4%)
GFR change from baseline >5%, number of patients (week 12): 9
GFR change from baseline >5%, percent of patients (week 12): (28.1%)
GFR change from baseline −5% <= and <=5%, number of patients (week 12): 10
GFR change from baseline −5% <= and <=5%, percent of patients (week 12): (31.3%)
UREA NITROGEN change from baseline <−5%, number of patients (week 12): 13
UREA NITROGEN change from baseline <−5%, percent of patients (week 12): (40.6%)
UREA NITROGEN change from baseline >5%, number of patients (week 12): 14
UREA NITROGEN change from baseline >5%, percent of patients (week 12): (43.8%)
UREA NITROGEN change from baseline −5% <= and <=5%, number of patients (week 12): 3
UREA NITROGEN change from baseline −5% <= and <=5%, percent of patients (week 12): (9.4%)
CREATININE (RATE BLANKED) change from baseline <−5%, number of patients (week 16): 10
CREATININE (RATE BLANKED) change from baseline <−5%, percent of patients (week 16): (31.3%)
CREATININE (RATE BLANKED) change from baseline >5%, number of patients (week 16): 12
CREATININE (RATE BLANKED) change from baseline >5%, percent of patients (week 16): (37.5%)
CREATININE (RATE BLANKED) change from baseline −5% <= and <=5%, number of patients (week 16): 8
CREATININE (RATE BLANKED) change from baseline −5% <= and <=5%, percent of patients (week 16): (25.0%)
GFR change from baseline <−5%, number of patients (week 16): 12
GFR change from baseline <−5%, percent of patients (week 16): (37.5%)
GFR change from baseline >5%, number of patients (week 16): 12
GFR change from baseline >5%, percent of patients (week 16): (37.5%)
GFR change from baseline −5% <= and <=5%, number of patients (week 16): 6
GFR change from baseline −5% <= and <=5%, percent of patients (week 16): (18.8%)
UREA NITROGEN change from baseline <−5%, number of patients (week 16): 9
UREA NITROGEN change from baseline <−5%, percent of patients (week 16): (28.1%)
UREA NITROGEN change from baseline >5%, number of patients (week 16): 9
UREA NITROGEN change from baseline >5%, percent of patients (week 16): (28.1%)
UREA NITROGEN change from baseline −5% <= and <=5%, number of patients (week 16): 12
UREA NITROGEN change from baseline −5% <= and <=5%, percent of patients (week 16): (37.5%)
CREATININE (RATE BLANKED) change from baseline <−5%, number of patients (week 20): 7
CREATININE (RATE BLANKED) change from baseline <−5%, percent of patients (week 20): (21.9%)
CREATININE (RATE BLANKED) change from baseline >5%, number of patients (week 20): 13
CREATININE (RATE BLANKED) change from baseline >5%, percent of patients (week 20): (40.6%)
CREATININE (RATE BLANKED) change from baseline −5% <= and <=5%, number of patients (week 20): 9
CREATININE (RATE BLANKED) change from baseline −5% <= and <=5%, percent of patients (week 20): (28.1%)
GFR change from baseline <−5%, number of patients (week 20): 11
GFR change from baseline <−5%, percent of patients (week 20): (34.4%)
GFR change from baseline >5%, number of patients (week 20): 8
GFR change from baseline >5%, percent of patients (week 20): (25.0%)
GFR change from baseline −5% <= and <=5%, number of patients (week 20): 10
GFR change from baseline −5% <= and <=5%, percent of patients (week 20): (31.3%)
UREA NITROGEN change from baseline <−5%, number of patients (week 20): 12
UREA NITROGEN change from baseline <−5%, percent of patients (week 20): (37.5%)
UREA NITROGEN change from baseline >5%, number of patients (week 20): 11
UREA NITROGEN change from baseline >5%, percent of patients (week 20): (34.4%)
UREA NITROGEN change from baseline −5% <= and <=5%, number of patients (week 20): 6
UREA NITROGEN change from baseline −5% <= and <=5%, percent of patients (week 20): (18.8%)
CREATININE (RATE BLANKED) change from baseline <−5%, number of patients (week 24): 11
CREATININE (RATE BLANKED) change from baseline <−5%, percent of patients (week 24): (34.4%)
CREATININE (RATE BLANKED) change from baseline >5%, number of patients (week 24): 9
CREATININE (RATE BLANKED) change from baseline >5%, percent of patients (week 24): (28.1%)
CREATININE (RATE BLANKED) change from baseline −5% <= and <=5%, number of patients (week 24): 9
CREATININE (RATE BLANKED) change from baseline −5% <= and <=5%, percent of patients (week 24): (28.1%)
GFR change from baseline <−5%, number of patients (week 24): 6
GFR change from baseline <−5%, percent of patients (week 24): (18.8%)
GFR change from baseline >5%, number of patients (week 24): 14
GFR change from baseline >5%, percent of patients (week 24): (43.8%)
GFR change from baseline −5% <= and <=5%, number of patients (week 24): 9
GFR change from baseline −5% <= and <=5%, percent of patients (week 24): (28.1%)
UREA NITROGEN change from baseline <−5%, number of patients (week 24): 14
UREA NITROGEN change from baseline <−5%, percent of patients (week 24): (43.8%)
UREA NITROGEN change from baseline >5%, number of patients (week 24): 13
UREA NITROGEN change from baseline >5%, percent of patients (week 24): (40.6%)
UREA NITROGEN change from baseline −5% <= and <=5%, number of patients (week 24): 2
UREA NITROGEN change from baseline −5% <= and <=5%, percent of patients (week 24): (6.3%)
percent of the group experiencing a decrease in GFR greater than 5% vs placebo (both groups receiving teduglutide): always less than the percent of the group receiving placebo
creatinine levels, average change versus baseline (FIG. 9) (groups receiving teduglutide, placebo increased): remained stable or decreased slightly
